According to patent publication EP2902035B1, “Cell-permeable peptide inhibitors of the JNK signal transduction pathway for use in the treatment of inflammatory eye diseases” (Xigen Inflammation Ltd., priority 2010, dated 2012):

Key:
Format in all cases: in vivo, Lewis rats
iNOS positive cells = assay: Immunohistochemistry of iNOS on eye sections in EIU; details: IV or IVT injection compared to control eyes, 24h
Experimental: A second set of experiment was designed to evaluate the anti-inflammatory effect of the JNK-inhibitor (poly-)peptide of SEQ ID NO: 11 at the cellular and tissue level as well as the biodistribution of this molecule 24 hours after administration. Rats were randomized into 11 experimental groups. 6 groups of rats with uveitis: untreated uveitic rats, rats injected intravenously with NaCl or the JNK-inhibitor (poly-)peptide of SEQ ID NO: 11 and rats injected intravitreously with the vehicle, the JNK-inhibitor (poly-)peptide of SEQ ID NO: 11 or dexamethasone. The 5 additional groups without uveitis were: untreated healthy rats, rats treated by NaCl IV or the JNK-inhibitor (poly-)peptide of SEQ ID NO: 11 IV and rats injected IVT with NaCl or the JNK-inhibitor (poly-)peptide of SEQ ID NO: 11. Three eyes from separate rats were collected per group and used for immunohistochemistry. To characterize the cellular infiltrate, sections were double-stained with ED1 and iNOS. […] After staining nuclei with DAPI (Sigma-Aldrich, Saint-Quentin Fallavier, France), sections were mounted in PBS/Glycerol (1/1) and observed by fluorescence photomicroscopy (FXA, Microphot, Nikon, Melville, USA). […] ED1 positive cells and polymorphonuclear cells, identified by the shape of their nuclei stained with DAPI, were quantified on histological sections. […] Results were expressed as mean ± standard error of the mean (SEM).

iNOS mRNA = assay: iNOS expression in ocular tissues by semi-quantitative PCR in EIU; details: retinas
Experimental: Retinas and RPE/choroid/sclera complexes were also collected at 24 hours to analyze iNOS mRNA levels by RT-PCR and c-Jun phosphorylation state by Western-Blot. Tissues were collected only from eyes treated by IV (intravenous) injection of vehicle, IV injection of the JNK-inhibitor (poly-)peptide of SEQ ID NO: 11, IVT (intravitreal) injection of vehicle and IVT injection of the JNK-inhibitor (poly-)peptide of SEQ ID NO: 11 (n=2 eyes per condition collected from separate rats). Eyes were selected so that their EIU clinical score was representative of the mean of the experimental group they belong to, i.e 3 for eyes treated by IV and IVT injection of vehicle and 2 for eyes treated by IV or IVT injection of the JNK-inhibitor (poly-)peptide of SEQ ID NO: 11.
Two eyes per group were used for this analysis. Immediately after dissection, retinas extracted from each eye were separately snap frozen and stored at -80°C until use. Total RNA was extracted from tissues (RNeasy minikit, Qiagen, Courtaboeuf, France) according to the manufacturer's instructions. […] PCR fragments (162 bp for GAPDH and 657 bp for iNOS) were analyzed by 2.5% agarose gel electrophoresis and visualized by ethidium bromide staining under UV light. The relative band intensity for iNOS was calculated in comparison to that for GAPDH after densitometry analysis (ImageJ software).

[1] = system: phospho-p44/42 MAPK (Erk1/2); assay: Immunohistochemistry of p-Erk1/2 on ocular sections in EIU; details: 24h
Experimental: A second set of experiment was designed to evaluate the anti-inflammatory effect of the JNK-inhibitor (poly-)peptide of SEQ ID NO: 11 at the cellular and tissue level as well as the biodistribution of this molecule 24 hours after administration. Rats were randomized into 11 experimental groups. 6 groups of rats with uveitis: untreated uveitic rats, rats injected intravenously with NaCl or the JNK-inhibitor (poly-)peptide of SEQ ID NO: 11 and rats injected intravitreously with the vehicle, the JNK-inhibitor (poly-)peptide of SEQ ID NO: 11 or dexamethasone. The 5 additional groups without uveitis were: untreated healthy rats, rats treated by NaCl IV or the JNK-inhibitor (poly-)peptide of SEQ ID NO: 11 IV and rats injected IVT with NaCl or the JNK-inhibitor (poly-)peptide of SEQ ID NO: 11. Three eyes from separate rats were collected per group and used for immunohistochemistry. Immunostaining of p-Erk1/2 was performed to evaluate the effect of the JNK-inhibitor (poly-)peptide of SEQ ID NO: 11 on the ERK pathway after IV or IVT administration. Sections were permeabilized as described above and incubated in blocking solution containing 0.1% Triton X-100 and 10% FCS (fetal calf serum) in PBS for 1 hour at room temperature. […]

## CC(C)C[C@@H](NC(=O)[C@@H](Cc1ccccc1)NC(=O)[C@H]1CCCN1C(=O)[C@@H](CCC(N)=O)NC(=O)[C@H](NC(=O)[C@H]1CCCN1C(=O)[C@@H](CCCNC(=N)N)NC(=O)[C@@H](CO)NC(=O)[C@@H](CCC(N)=O)NC(=O)[C@H](N)CC(=O)O)C(C)C)C(=O)N[C@H](CC(N)=O)C(=O)N[C@H](CC(C)C)C(=O)N[C@@H](C(=O)N[C@@H](C(=O)N1CCC[C@@H]1C(=O)N[C@H](CCCNC(=N)N)C(=O)N[C@H](CCCCN)C(=O)N1CCC[C@@H]1C(=O)N[C@H](CCCNC(=N)N)C(=O)N1CCC[C@@H]1C(=O)N1CCC[C@@H]1C(=O)N[C@H](CCCNC(=N)N)C(=O)N[C@H](CCCNC(=N)N)C(=O)N[C@H](CCCNC(=N)N)C(=O)N[C@H](CCC(N)=O)C(=O)N[C@H](CCCNC(=N)N)C(=O)N[C@H](CCCNC(=N)N)C(=O)N[C@H](CCCCN)C(=O)N[C@H](CCCCN)C(=O)N[C@H](CCCNC(=N)N)C(=O)NCC(=O)O)[C@H](C)O)[C@H](C)O [SEQ ID NO: 11]
iNOS positive cells
  number of iNOS positive cells: reduced
iNOS mRNA; 24 hours after IV
  Levels of iNOS mRNA (relative band intensity in comparison to GAPDH): 0.40 ± 0.11
iNOS mRNA; 24 hours after IVT injection
  Levels of iNOS mRNA (relative band intensity in comparison to GAPDH): 0.27 ± 0.09
[1]; iris epithelium
  effect on p-Erk1/2 signal in the iris epithelium: no effect
[1]; neuroretina, administered by either route (IV or IVT)
  effect on p-Erk1/2 in retinal Müller glial (RMG) cells: no effect
